Results taken from PubChem BioAssay (NCI).
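Compound exposure: 48 hours, 5 concentrations, 96-well plates. Abbreviation: GI50, concentration required for 50% inhibition of growth. TGI marks complete inhibition of growth.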

Assays:
Assay in all cases: DTP human tumour cell line panel, 48 h
NCI-H226 lung = system: NCI-H226 lung
NCI-H23 lung = system: NCI-H23 lung
NCI-H460 lung = system: NCI-H460 lung
NCI-H522 lung = system: NCI-H522 lung
NCI/ADR-RES ovarian = system: NCI/ADR-RES ovarian
OVCAR-3 ovarian = system: OVCAR-3 ovarian
OVCAR-4 ovarian = system: OVCAR-4 ovarian
OVCAR-5 ovarian = system: OVCAR-5 ovarian
OVCAR-8 ovarian = system: OVCAR-8 ovarian
PC-3 prostate = system: PC-3 prostate
RPMI-8226 leukemia = system: RPMI-8226 leukemia
RXF 393 renal = system: RXF 393 renal
SF-268 CNS = system: SF-268 CNS
SF-295 CNS = system: SF-295 CNS
SF-539 CNS = system: SF-539 CNS
SK-MEL-2 melanoma = system: SK-MEL-2 melanoma
SK-MEL-28 melanoma = system: SK-MEL-28 melanoma
SK-MEL-5 melanoma = system: SK-MEL-5 melanoma
SK-OV-3 ovarian = system: SK-OV-3 ovarian
SN12C renal = system: SN12C renal
SNB-19 CNS = system: SNB-19 CNS
SNB-75 CNS = system: SNB-75 CNS
SR leukemia = system: SR leukemia
SW-620 colon = system: SW-620 colon
T-47D breast = system: T-47D breast
TK-10 renal = system: TK-10 renal
U251 CNS = system: U251 CNS
UACC-257 melanoma = system: UACC-257 melanoma
UACC-62 melanoma = system: UACC-62 melanoma
UO-31 renal = system: UO-31 renal

## CCN(CC)c1ccc(/C=C2/NC(=O)NC2=O)cc1
NCI-H226 lung
  TGI: > 100 µM
NCI-H23 lung
  GI50: 7.97 µM
  TGI: > 100 µM
NCI-H460 lung
  GI50: 4.44 µM
  TGI: > 100 µM
NCI-H522 lung
  GI50: 2.18 µM
  TGI: 24.8 µM
NCI/ADR-RES ovarian
  GI50: 1.93 µM
  TGI: 12.2 µM
OVCAR-3 ovarian
  GI50: 2.41 µM
  TGI: 7.18 µM
OVCAR-4 ovarian
  GI50: 22.6 µM
  TGI: > 100 µM
OVCAR-5 ovarian
  GI50: 10.5 µM
  TGI: > 100 µM
OVCAR-8 ovarian
  GI50: 14.7 µM
  TGI: > 100 µM
PC-3 prostate
  GI50: 12.1 µM
  TGI: > 100 µM
RPMI-8226 leukemia
  GI50: 5.34 µM
  TGI: > 100 µM
RXF 393 renal
  GI50: 4.34 µM
  TGI: 17.5 µM
SF-268 CNS
  GI50: 4.39 µM
  TGI: > 35.8 µM
SF-295 CNS
  GI50: 4.36 µM
  TGI: > 32.7 µM
SF-539 CNS
  GI50: 5.57 µM
  TGI: 53.6 µM
SK-MEL-2 melanoma
  GI50: 3.03 µM
  TGI: > 31.4 µM
SK-MEL-28 melanoma
  GI50: 15.9 µM
  TGI: > 100 µM
SK-MEL-5 melanoma
  GI50: 3.19 µM
  TGI: > 74.9 µM
SK-OV-3 ovarian
  GI50: 6.84 µM
  TGI: > 100 µM
SN12C renal
  GI50: 11.1 µM
  TGI: > 100 µM
SNB-19 CNS
  GI50: 15.5 µM
  TGI: > 100 µM
SNB-75 CNS
  GI50: 4.01 µM
  TGI: > 100 µM
SR leukemia
  GI50: 0.605 µM
  TGI: > 100 µM
SW-620 colon
  GI50: 3.47 µM
  TGI: > 100 µM
T-47D breast
  GI50: 4.09 µM
  TGI: > 71.5 µM
TK-10 renal
  GI50: 9.56 µM
  TGI: > 100 µM
U251 CNS
  GI50: 6.05 µM
  TGI: > 100 µM
UACC-257 melanoma
  GI50: 4.01 µM
  TGI: > 100 µM
UACC-62 melanoma
  GI50: 1.8 µM
  TGI: 12.9 µM
UO-31 renal
  TGI: > 100 µM
